Data as given in publication PMC3119931 (2011).
Blank lines part the entries; values can stand above or below the molecule they belong to.

Experiments:
[1] = system: GRA (B. subtilis xpt-pbuX guanine riboswitch C74U aptamer domain) (RNA, riboswitch) GGACAUAUAAUCGCGUGGAUAUGGCACGCAAGUUUCUACCGGGCACCGUAAAUGUCCGAUUAUGUCC; assay: 2-aminopurine displacement fluorescence competition; details: 100 mM KCl, 10 mM MgCl2, 50 mM Tris-HCl pH 8.3
[2] = system: GRA (B. subtilis xpt-pbuX guanine riboswitch C74U aptamer domain) (RNA, riboswitch) GGACAUAUAAUCGCGUGGAUAUGGCACGCAAGUUUCUACCGGGCACCGUAAAUGUCCGAUUAUGUCC; assay: X-ray crystallography; details: cocrystal structure, 1.6 Å
[3] = system: GRA (B. subtilis xpt-pbuX guanine riboswitch C74U aptamer domain) (RNA, riboswitch) GGACAUAUAAUCGCGUGGAUAUGGCACGCAAGUUUCUACCGGGCACCGUAAAUGUCCGAUUAUGUCC; assay: 2-aminopurine fluorescence titration; details: 100 mM KCl, 10 mM MgCl2; 50 mM Tris-HCl pH 8.3; RNA titrated into 200 nM 2-aminopurine
[4] = 2-aminopurine displaced (KL 140 nM), 243 nM RNA

SMILES: CNc1ncnc2[nH]cnc12
binding [2]: yes

SMILES: Nc1cc(N)nc(N)n1
binding constant [1, 4]: 0.014 ± 0.001 mM

SMILES: Nc1nc2[nH]nc(N)n2n1
KD [1, 4]: 370 ± 40 µM

The remaining lines, values ahead:

KD [1, 4]: 80 ± 20 µM
SMILES: Nc1ncnc(N)n1

KL [3]: 140 nM
SMILES: Nc1ncc2[nH]cnc2n1

binding ([1]; 2-aminopurine displaced, highest concentration tested 120 μM): no
SMILES: Nc1nc(N)nc(Cl)n1

KD [1, 4]: 110 ± 30 µM
SMILES: Cc1nc(N)nc(N)n1
